Data as given in US7192746B2, “α-Isomaltosyltransferase, process for producing the same and use thereof” (Kabushiki Kaisha Hayashibara Seibutsu Kagaku Kenkyujo, priority 2000, dated 2007).
Where two headings read alike, the source gives them in different places.

Experiments:
Format in all cases: biochemical
[1] = tested on: α-isomaltosyl-transferring enzyme from Bacillus globisporus C9; experiment: Influence of metal ions on enzyme activity; settings: enzyme of Strain C9; for Relative activity: 1 mM metal ion; for Effect on enzyme activity: 1 mM
Procedure: (§1) The activity of the enzyme was assayed by dissolving panose in 100 mM acetate buffer (pH 6.0) to give a concentration of two percent (w/v) for a substrate solution, adding a 0.5 ml of an enzyme solution to a 0.5 ml of the substrate solution, enzymatically reacting the mixture solution at 35° C. for 30 min, suspending the reaction mixture by boiling for 10 min, and quantifying glucose by the glucose oxidation method. One unit activity of the α-isomaltosyl-transferring enzyme is defined as the enzyme amount that forms one micromole of glucose per minute under the above enzymatic reaction conditions. Throughout the specification, the enzymatic activity of the α-isomaltosyl-transferring enzyme means the unit(s) assayed as above.
The influence of metal ions on the activity of α-isomaltosyl-transferring enzyme was examined in the presence of 1 mM of each metal-ion according to the assay for the enzyme activity.

[2] = tested on: α-isomaltosyl-transferring enzyme from Arthrobacter ramosus S1; experiment: Influence of metal ions on enzyme activity; settings: enzyme of Strain S1; for Relative activity: 1 mM metal ion; for Effect on enzyme activity: 1 mM
Procedure: as §1
(§2) The influence of metal ions on the activity of α-isomaltosyl-transferring enzyme was examined in the presence of 1 mM of a metal ion according to the assay for the enzyme activity.

[3] = tested on: α-isomaltosyl-transferring enzyme from Bacillus globisporus C11; experiment: Influence of metal ions on enzyme activity; settings: enzyme of Strain C11; for Relative activity: 1 mM metal ion; for Effect on enzyme activity: 1 mM
Procedure: as §1, §2

[4] = tested on: α-isomaltosyl-transferring enzyme from Bacillus globisporus N75
Procedure: as §1, §2

[5] = tested on: α-isomaltosyl-transferring enzyme from Arthrobacter globiformis A19; experiment: Action on saccharides (substrates, TLC); parameters: key: −: there was found no substrate change before and after the enzymatic reaction; +: there were found both the reduction of substrate and the formation of cyclotetrasaccharide after the enzymatic reaction; settings: partially purified enzyme, 2 units/g substrate, 2% (w/v) substrate, 30° C., pH 6.0, 24 hours
Summary of the method: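 Each candidate saccharide, from malto- and isomalto-oligosaccharides to cyclodextrins, starch, pullulan and dextran, was prepared at 2% (w/v). Two units/g substrate of enzyme were added, then the mixture was held at pH 6.0, 30° C., 24 hours. Samples were then analysed by silica gel TLC.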

[6] = tested on: α-isomaltosyl-transferring enzyme from Arthrobacter ramosus S1; experiment: Action on saccharides (substrates, TLC); parameters: key: −: there was found no substrate change before and after the enzymatic reaction; +: there were found both the reduction of substrate and the formation of cyclotetrasaccharide after the enzymatic reaction; settings: 2 units/g substrate, 2% (w/v) substrate, 30° C., pH 6.0, 24 hours
Summary of the method: (§3)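 Purified enzyme (2 units/g substrate) was incubated with each saccharide at 2% (w/v), pH 6.0, 30° C. for 24 hours. Reaction mixtures before and after incubation were run on silica gel TLC in n-butanol/pyridine/water (6:4:1), with total sugars stained by sulfuric acid-methanol and reducing sugars by diphenylamine-aniline.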

[7] = tested on: α-isomaltosyl-transferring enzyme from Bacillus globisporus C11; experiment: Action on saccharides (substrates, TLC); parameters: key: −: there was found no substrate change before and after the enzymatic reaction; +: there were found both the reduction of substrate and the formation of cyclotetrasaccharide after the enzymatic reaction; settings: 2 units/g substrate, 2% (w/v) substrate, 30° C., pH 6.0, 24 hours
Summary of the method: as §3

[8] = tested on: α-isomaltosyl-transferring enzyme from Bacillus globisporus C9; experiment: Action on saccharides (substrates, TLC); parameters: key: −: there was found no substrate change before and after the enzymatic reaction; +: there were found both the reduction of substrate and the formation of cyclotetrasaccharide after the enzymatic reaction; settings: 2 units/g substrate, 2% (w/v) substrate, 30° C., pH 6.0, 24 hours
Summary of the method: as §3

[9] = tested on: α-isomaltosyl-transferring enzyme from Bacillus globisporus N75; experiment: Action on saccharides (substrates, TLC); parameters: key: −: there was found no substrate change before and after the enzymatic reaction; +: there were found both the reduction of substrate and the formation of cyclotetrasaccharide after the enzymatic reaction; settings: 2 units/g substrate, 2% (w/v) substrate, 30° C., pH 6.0, 24 hours
Summary of the method: as §3

[10] = tested on: α-isomaltosyl-transferring enzyme from Bacillus globisporus C11; experiment: Formation of reducing power from high molecular glucans; settings: Enzyme of Strain C11
Procedure: (§4) In the above experiment, no detectable amount of a lower molecular weight saccharide such as cyclotetrasaccharide detectable on TLC was formed from soluble starch, pullulan and dextran as high molecular glucans. The following test was carried out to confirm that the α-isomaltosyl-transferring enzyme of the present invention neither increase the reducing power of the above high molecular glucans nor hydrolyze them. To a solution of soluble starch, pullulan or dextran was added 12 units/g substrate of a purified specimen of α-isomaltosyl-transferring enzyme from either Bacillus globisporus C9 obtained by the method in Experiment 4, Bacillus globisporus C11 obtained by the method in Experiment 7, Bacillus globisporus N75 obtained by the method in Experiment 11, or Arthrobacter ramosus S1 obtained by the method in Experiment 15. […] The reducing saccharide contents and the total sugar contents in the resulting reaction mixtures after the enzymatic reactions were respectively quantified by the Somogyi-Nelson's method and the anthrone-sulfuric acid reaction method. The percentage of forming reducing power was calculated by the following equation, and the results are in Table 13:
(§5) [formula] [formula] AR: Reducing sugar content after enzymatic reaction. AT: Total sugar content after enzymatic reaction. BR: Reducing sugar content before enzymatic reaction. BT: Total sugar content before enzymatic reaction.

[11] = tested on: α-isomaltosyl-transferring enzyme from Bacillus globisporus C9; experiment: as above; settings: Enzyme of Strain C9
Procedure: as §4, §5

[12] = tested on: α-isomaltosyl-transferring enzyme from Arthrobacter ramosus S1; experiment: as above; settings: printed Enzyme of Strain N75 a second time
Procedure: (§6) In the above experiment, no detectable amount of a lower molecular weight saccharide such as cyclotetrasaccharide detectable on TLC was formed from soluble starch, pullulan and dextran as high molecular glucans. The following test was carried out to confirm that the α-isomaltosyl-transferring enzyme of the present invention neither increase the reducing power of the above high molecular glucans nor hydrolyze them. To a solution of soluble starch, pullulan or dextran was added 12 units/g substrate of a purified specimen of α-isomaltosyl-transferring enzyme from either Bacillus globisporus C9 obtained by the method in Experiment 4, Bacillus globisporus C11 obtained by the method in Experiment 7, Bacillus globisporus N75 obtained by the method in Experiment 11, or Arthrobacter ramosus S1 obtained by the method in Experiment 15. The resulting each solution was adjusted to give a substrate concentration of one percent (w/v) and incubated at 35° C. and pH 6.0 for four hours. The reducing saccharide contents and the total sugar contents in the resulting reaction mixtures after the enzymatic reactions were respectively quantified by the Somogyi-Nelson's method and the anthrone-sulfuric acid reaction method. The percentage of forming reducing power was calculated by the following equation, and the results are in Table 13:
as §5

[13] = tested on: α-isomaltosyl-transferring enzyme from Bacillus globisporus N75; experiment: as above; settings: Enzyme of Strain N75
Procedure: as §6, §5

[14] = 1 mM metal ion, enzyme of Strain N75
[15] = 0 hr, 12 units/g substrate, 1% (w/v), 35° C., pH 6.0

[Al+3] [Al^3+]
Relative activity [1]: 103%
Relative activity [2]: 93%
Relative activity [3]: 89%
Relative activity [4, 14]: 94%

pullulan
Enzymatic action for forming cyclotetrasaccharide, Enzyme of Strain A19 [5]: −
Enzymatic action for forming cyclotetrasaccharide, Enzyme of Strain S1 [6]: −
Enzymatic action for forming cyclotetrasaccharide, Enzyme of Strain C11 [7]: −
Enzymatic action for forming cyclotetrasaccharide, Enzyme of Strain C9 [8]: −
Enzymatic action for forming cyclotetrasaccharide, Enzyme of Strain N75 [9]: −
Percentage of forming reducing power [10, 15]: 0.0%
Percentage of forming reducing power ([10]; 1 hr): 0.0%
Percentage of forming reducing power ([10]; 2 hr): 0.0%
Percentage of forming reducing power ([10]; 3 hr): 0.0%
Percentage of forming reducing power ([10]; 4 hr): 0.0%
Percentage of forming reducing power [11, 15]: 0.0%
Percentage of forming reducing power ([11]; 1 hr): 0.0%
Percentage of forming reducing power ([11]; 2 hr): 0.0%
Percentage of forming reducing power ([11]; 3 hr): 0.0%
Percentage of forming reducing power ([11]; 4 hr): 0.0%
Percentage of forming reducing power [12, 15]: 0.0%
Percentage of forming reducing power ([12]; 1 hr): 0.0%
Percentage of forming reducing power ([12]; 2 hr): 0.0%
Percentage of forming reducing power ([12]; 3 hr): 0.0%
Percentage of forming reducing power ([12]; 4 hr): 0.0%
Percentage of forming reducing power [13, 15]: 0.0%
Percentage of forming reducing power ([13]; 1 hr): 0.0%
Percentage of forming reducing power ([13]; 2 hr): 0.0%
Percentage of forming reducing power ([13]; 3 hr): 0.0%
Percentage of forming reducing power ([13]; 4 hr): 0.0%

O=C(O)CN(CCN(CC(=O)O)CC(=O)O)CC(=O)O [EDTA]
Relative activity [1]: 104%
Effect on enzyme activity [1]: nor inhibited
Relative activity [2]: 91%
Effect on enzyme activity [2]: nor inhibited
Relative activity [3]: 98%
Effect on enzyme activity [3]: nor inhibited
Effect on enzyme activity [4]: nor inhibited
Relative activity [4]: 92%

[Co+2] [Co^2+]
Relative activity [1]: 103%
Relative activity [2]: 91%
Relative activity [3]: 89%
Relative activity [4, 14]: 92%

dextran
Enzymatic action for forming cyclotetrasaccharide, Enzyme of Strain A19 [5]: −
Enzymatic action for forming cyclotetrasaccharide, Enzyme of Strain S1 [6]: −
Enzymatic action for forming cyclotetrasaccharide, Enzyme of Strain C11 [7]: −
Enzymatic action for forming cyclotetrasaccharide, Enzyme of Strain C9 [8]: −
Enzymatic action for forming cyclotetrasaccharide, Enzyme of Strain N75 [9]: −
Percentage of forming reducing power [10, 15]: 0.0%
Percentage of forming reducing power ([10]; 1 hr): 0.0%
Percentage of forming reducing power ([10]; 2 hr): 0.0%
Percentage of forming reducing power ([10]; 3 hr): 0.0%
Percentage of forming reducing power ([10]; 4 hr): 0.0%
Percentage of forming reducing power [11, 15]: 0.0%
Percentage of forming reducing power ([11]; 1 hr): 0.0%
Percentage of forming reducing power ([11]; 2 hr): 0.0%
Percentage of forming reducing power ([11]; 3 hr): 0.1%
Percentage of forming reducing power ([11]; 4 hr): 0.0%
Percentage of forming reducing power [12, 15]: 0.0%
Percentage of forming reducing power ([12]; 1 hr): 0.0%
Percentage of forming reducing power ([12]; 2 hr): 0.0%
Percentage of forming reducing power ([12]; 3 hr): 0.0%
Percentage of forming reducing power ([12]; 4 hr): 0.0%
Percentage of forming reducing power [13, 15]: 0.0%
Percentage of forming reducing power ([13]; 1 hr): 0.0%
Percentage of forming reducing power ([13]; 2 hr): 0.0%
Percentage of forming reducing power ([13]; 3 hr): 0.0%
Percentage of forming reducing power ([13]; 4 hr): 0.0%

[Sr+2] [Sr^2+]
Relative activity [1]: 101%
Relative activity [2]: 101%
Relative activity [3]: 93%
Relative activity [4, 14]: 91%

[Ni+2] [Ni^2+]
Relative activity [1]: 102%
Relative activity [2]: 87%
Relative activity [3]: 89%
Relative activity [4, 14]: 91%

[Hg+2] [Hg^2+]
Relative activity [1]: 1%
Effect on enzyme activity [1]: greatly inhibited
Relative activity [2]: 0.1%
Effect on enzyme activity [2]: greatly inhibited
Relative activity [3]: 2%
Effect on enzyme activity [3]: greatly inhibited
Relative activity [4, 14]: 0.5%
Effect on enzyme activity ([4]; 1 mM, enzyme of Strain N75): greatly inhibited

[Cu+2] [Cu^2+]
Relative activity [1]: 57%
Effect on enzyme activity [1]: also inhibited
Relative activity [2]: 2%
Effect on enzyme activity [2]: also inhibited
Relative activity [3]: 56%
Effect on enzyme activity [3]: also inhibited
Relative activity [4, 14]: 15%
Effect on enzyme activity ([4]; 1 mM, enzyme of Strain N75): also inhibited

[Ba+2] [Ba^2+]
Relative activity [1]: 102%
Relative activity [2]: 97%
Relative activity [3]: 90%
Relative activity [4, 14]: 102%

[Pb+2] [Pb^2+]
Relative activity [1]: 89%
Relative activity [2]: 85%
Relative activity [3]: 74%
Relative activity [4, 14]: 69%

[Zn+2] [Zn^2+]
Relative activity [1]: 88%
Relative activity [2]: 78%
Relative activity [3]: 83%
Relative activity [4, 14]: 75%
